Results: US20230404953A1, “COMPOUND FOR THE REDUCTION OF WHITE ADIPOSE TISSUE AND THE TREATMENT OF OVERWEIGHT AND OBESITY” (UNIVERSIDAD DE GRANADA, priority 2020, published 2023)

How the values were obtained:
[1] = test system: wild-type mice with a standard diet; experiment: Liver morphology of mice with a standard diet (H&E and Oil Red O staining); assay type: in vivo; conditions: standard diet + 0.33% (w/w) β-RA; 18 months of age; male and female mice
From the text: (§1) In this example intended for long-term evaluation during the aging process, the animals were kept on a standard rodent diet consisting mainly of carbohydrates (66% carbohydrates, 21% proteins, and 13% fats as energy sources), where these mice accumulate fat as they age, imitating a situation of overweight associated with age.
(§2) The experimental treatment was based on the administration of β-RA in the chow feed at a concentration of 0.33% (weight/weight), which represents a dose of 0.25-0.75 g/kg of body weight/day.
(§3) The mice were put under treatment after weaning at 21 days of life, with said treatment being maintained for the entire life of the animals. Analyses were performed at 18 months of life, unless another age is indicated, after 17 months of treatment.
In this example, photographs have been taken of the animals and tissues after dissection. The tissues were fixed in formalin and embedded in paraffin. Several sections (4 μm thick) were deparaffinized with xylene and stained with hematoxylin and eosin staining (Luna-Sanchez M, Diaz-Casado E, Barca E, Tejada M A, Montilla-Garcia A, Cobos E J, Escames G, Acuna-Castroviejo D, Quinzii C M, Lopez L C (2015) The clinical heterogeneity of coenzyme Q10 deficiency results from genotypic differences in the Coq9 gene. EMBO Mol Med 7: 670-87). […]

[2] = CAG-CreER^T2; Mclk1^Loxp/Loxp control mice; cited from earlier work
[3] = test system: wild-type mice with a HFHS diet; experiment: Plasma levels of insulin and GIP in mice with a HFHS diet; assay type: in vivo; conditions: HFHS diet + β-RA, 16 weeks
From the text: (§4) In this example intended for performing a short-term evaluation in an induced metabolic syndrome model, the animals were fed on a high fat high sucrose (HFHS) diet (32% carbohydrates, 14% proteins, and 54% fats as energy sources), where said mice experience a higher fat gain, imitating a state of obesity.
as §2
(§5) The mice were put under treatment at two months of life, with said treatment being maintained for 4 months. Analyses were performed at 6 months of life, after 4 months of treatment.
Plasma levels of insulin and gastric inhibitory peptide (GIP), also called glucose-dependent insulinotropic peptide, given that both of them tend to increase in cases of obesity with insulin resistance, were determined. […] The administration of β-RA to mice with a HFHS diet reduced the plasma levels of insulin (FIG. 14A) and GIP (FIG. 14B), normalizing said values.

[4] = test system: white adipocytes; experiment: Morphology of WAT in mice with a HFHS diet (hematoxylin and eosin staining); assay type: in vivo; conditions: HFHS diet + β-RA, 16 weeks
From the text: as §4, §2, §5
(§6) At the level of WAT, CoQ metabolism was evaluated by determining the levels of the major form of CoQ in rodents, i.e., CoQ9, as well as the levels of two limiting enzymes in the CoQ biosynthesis pathway, i.e., the hydroxylase Coq7 and the methyltransferase Coq5. […] These molecular changes translate into morphological changes observed with hematoxylin and eosin staining. […] As a result, the area occupied by adipocytes after treatment with a HFHS diet is larger than after treatment with the standard diet, with the number of adipocytes being smaller. Treatment with β-RA normalizes both the area of the adipocytes (FIG. 16G) and the number thereof (FIG. 16H).

[5] = test system: wild-type mice with a HFHS diet; experiment: Phenotypic state of mice with a high fat high sucrose (HFHS) diet (induced obesity); assay type: in vivo; conditions: HFHS diet + 0.33% (w/w) β-RA, 16 weeks
From the text: (§7) For the studies, c57Bl6j strain control mice were used under the protocols approved by the Animal Experimentation Ethics Committee of the University of Granada and registered by the competent body, the General Directorate of Agricultural and Livestock Production of the Ministry of Agriculture, Livestock, Fisheries, and Sustainable Development of the Regional Government of Andalusia, under reference numbers 18/02/2019/016 and 16/09/2019/153.
as §4, §2, §5
(§8) Survival and body weight were determined through continuous records throughout the life of the animals. Motor coordination and activity were evaluated through the rotarod test. The muscle strength of the hind limbs was evaluated through the grip strength test. The image and the weight of the tissues were taken immediately after sacrificing and dissecting the animals.

[6] = test system: C2C12 myoblasts; experiment: MTT cell proliferation assay in myoblasts; assay type: cell-based; conditions: 1 mM β-RA for 5 days, proliferation conditions
Procedure: (§9) It is known that one of the WAT expansion mechanisms is hyperplasia, i.e., the capacity of WAT to recruit new adipocytes proliferated from precursor cells. To check whether the effect of β-RA on WAT may also constitute a direct action on WAT, the proliferative capacity of a preadipocyte cell line (3T3L1) subjected to treatment with β-RA was determined in in vitro assays, and the results were compared with those obtained in a myoblast cell line (C2C12). This could be used to determine whether the possible effects are specific of a given cell type, excluding those signals and consequences resulting from the physiological context of the in vivo studies. Preadipocyte cell line 3T3L1 and myoblast cell line C2C12 were provided by the Cell Culture Department of the Science Instrumentation Center of the University of Granada. The cells were cultured in glucose-rich DMEM-GlutaMAX supplemented with 10% BCS or FBS, 1% non-essential amino acids MEM, and 1% antibiotic/antimycotic. Treatment with β-RA was administered at a concentration of 1 mM for 5 days. A control group was also treated with vehicle (DMSO) at the same concentration (Luna-Sanchez et al., 2015). The proliferation assay was performed with Vybrant® MTT Cell Proliferation Assay Kit (ThermoFisher Scientific), following the indications of the manufacturing company.

[7] = test system: 3T3L1 preadipocytes; experiment: MTT cell proliferation assay in preadipocytes; assay type: cell-based; conditions: 1 mM β-RA for 5 days, proliferation conditions
Procedure: as §9

[8] = test system: white adipose tissue (WAT); experiment: CoQ metabolism in white adipose tissue of mice with a HFHS diet; assay type: in vivo; conditions: HFHS diet + β-RA, 16 weeks
From the text: as §4, §2, §5, §6

[9] = test system: wild-type mice with a standard diet; experiment: Survival and phenotypic state of mice with a standard diet (overweight associated with age); assay type: in vivo
From the text: as §7, §1, §2, §3, §8

[10] = test system: kidney mitochondria; experiment: Kidney mitochondrial proteome in mice with a standard diet; assay type: in vivo
Procedure: To check if β-RA has effects on energy metabolism in mitochondria, a study was performed on the mitochondrial proteome of kidneys, because the highest β-RA levels are reached in this tissue (see Table 1).
Each kidney was dissected, and the mitochondrial fraction was then isolated by differential centrifugation. Each pellet was resuspended in […] of HEENK medium with a protease inhibitor. The samples were lysed, digested, and treated prior to injection in UHPLC. After quality control, the samples were injected into a UHPLC 1290 system (Agilent Technologies; Santa Clara, USA) coupled to a Q Exactive HF mass spectrometer (Thermo Scientific; Bremen, Germany) in the previously described conditions (Liu F, Lossl P, Rabbitts B M, Balaban R S, Heck A J R (2018) The interactome of intact mitochondria by cross-linking mass spectrometry provides evidence for coexisting respiratory supercomplexes. Mol Cell Proteomics 17: 216-232). The raw files generated were analyzed using MaxQuant v1.6.10 software (Cox J, Mann M (2008) MaxQuant enables high peptide identification rates, individualized p.p.b.-range mass accuracies and proteome-wide protein quantification. Nat Biotechnol 26: 1367-72). The files generated with MaxQuant were analyzed with Perseus: LFQ data was log 2-transformed, and identifications that were present in at least 3 of the 5 replicates were kept for subsequent analyses. For the volcano plot, a P-value threshold of 0.01 and 1 for the LFQ value log 2 difference has been established.

[11] = Quantification of β-RA levels in mouse tissues by HPLC-UV; assay type: in vivo; conditions: wild-type mice 3 months of age, β-RA in standard diet at 0.33% (w/w), oral, mean±SD
Procedure: The experimental treatment was based on the administration of β-RA in the chow feed at a concentration of 0.33% (weight/weight), which represents a dose of 0.25-0.75 g/kg of body weight/day. […] Therefore, β-RA has been chronically administered orally. The quantification of β-RA was carried out by means of HPLC-UV using an Ultra Aqueous C18 column and a mobile phase consisting of 20 mM potassium phosphate and 15% acetonitrile (pH 2.5). The standard curve consisted of β-RA at a concentration of 5, 25, and 100 μg/mL. In this example, β-RA levels were determined in order to know the bioavailability of the compound when it is administered orally. It has been observed that β-RA appears in the brain, kidneys, liver, and skeletal muscle, with the kidneys being the tissues having the highest level of the compound (Table 1).

[12] = standard diet + 0.33% (w/w) β-RA, 18 months of age

## O=C(O)c1ccc(O)cc1O [β-RA, 2,4-dihydroxybenzoic acid]
[1]
  Onset of hepatic steatosis (lipid droplets in liver): prevented
[2]
  Body weight: reduces the body weight
[3]
  Plasma levels of gastric inhibitory peptide (GIP): reduced
  Plasma levels of insulin: reduced
[4]
  Area of the adipocytes: normalizes
  Number of adipocytes per area: normalizes
[4]; H&E staining
  Hypertrophy of WAT (white adipocytes): prevents hypertrophy of WAT
[5]
  Abdominal and visceral fat: reduction of abdominal and visceral fat
  Skeletal muscle mass: do not cause any changes
[5]; male and female
  Body weight (increase induced by HFHS diet): counteracted said increase in weight
[6]
  Proliferative capacity of C2C12 myoblasts: did not have a significant effect
[7]
  3T3L1 preadipocyte proliferation: induces an inhibition
[8]
  Levels of CoQ9 in WAT: increased said levels, achieving the normalization thereof
  Levels of biosynthetic protein Coq5 in WAT: increase
  Levels of biosynthetic protein Coq7 in WAT: increase in the levels of Coq7
[9]; standard diet + 0.33% (w/w) β-RA from weaning, all stages of development, male and female
  Body weight: reduction of weight
[9]; standard diet + 0.33% (w/w) β-RA from weaning, old-age stage (18-24 months)
  Survival: increase in survival
[9]; [12]
  Amount of abdominal and visceral fat: reduction in the amount of abdominal and visceral fat
  Motor coordination (rotarod test): slight upward trend
  Muscle strength of the hind limbs (grip strength test): remained unchanged and even slightly increased in reference to the total weight of the animal
[9]; standard diet + 0.33% (w/w) β-RA, 18 months of age, hind limbs
  Weight of the skeletal muscles: maintained in the normal range
[10]; mice with standard diet + β-RA
  Changes in the mitochondrial proteome: proteins of acetyl-CoA production from pyruvate and of the Krebs cycle: an increase in proteins linked to the metabolic pathways for the production of acetyl-CoA from pyruvate and of the tricarboxylic acid cycle or Krebs cycle
[10]; β-RA treated vs untreated mice, Aconitase 2 (Q99KI0)
  Expr Fold Change, ACO2: 1.383
[10]; β-RA treated vs untreated mice, Succinate CoA ligase subunit alpha (Q9WUM5)
  Expr Fold Change, SUCLG1: 1.301
[10]; β-RA treated vs untreated mice, Succinate CoA ligase subunit beta (Q9Z2I8)
  Expr Fold Change, SUCLG2: 1.189
[10]; β-RA treated vs untreated mice, citrate synthase (Q9CZU6)
  Expr Fold Change, CS: 1.485
[10]; β-RA treated vs untreated mice, dihydrolipoamide S-acetyltransferase (Q8BMF4)
  Expr Fold Change, DLAT: 1.638
[10]; β-RA treated vs untreated mice, dihydrolipoamide S-succinyltransferase (Q9D2G2)
  Expr Fold Change, DLST: 2.316
[10]; β-RA treated vs untreated mice, dihydrolipoamide dehydrogenase (O08749)
  Expr Fold Change, DLD: 1.831
[10]; β-RA treated vs untreated mice, isocitrate dehydrogenase (NAD(+)) 3 catalytic subunit alpha (Q9D6R2)
  Expr Fold Change, IDH3A: 1.72
[10]; β-RA treated vs untreated mice, isocitrate dehydrogenase (NAD(+)) 3 non-catalytic subunit beta (Q91VA7)
  Expr Fold Change, IDH3B: 1.727
[10]; β-RA treated vs untreated mice, isocitrate dehydrogenase (NAD(+)) 3 non-catalytic subunit gamma (P70404)
  Expr Fold Change, IDH3G: 1.573
[10]; β-RA treated vs untreated mice, malate dehydrogenase 2 (P08249)
  Expr Fold Change, MDH2: 1.397
[10]; β-RA treated vs untreated mice, oxoglutarate dehydrogenase (Q60597)
  Expr Fold Change, OGDH: 2.05
[10]; β-RA treated vs untreated mice, pyruvate dehydrogenase E1 subunit alpha 1 (P35486)
  Expr Fold Change, PDHA1: 1.61
[10]; β-RA treated vs untreated mice, pyruvate dehydrogenase E1 subunit beta (Q9D051)
  Expr Fold Change, PDHB: 1.711
[11]; brain
  β-RA levels, Brain: 1.26 ± 0.58 ng of β-RA/mg of protein
[11]; kidney
  β-RA levels, Kidney: 43.02 ± 16.51 ng of β-RA/mg of protein
[11]; liver
  β-RA levels, Liver: 7.04 ± 2.96 ng of β-RA/mg of protein
[11]; skeletal muscle
  β-RA levels, Muscle: 20.28 ± 9.39 ng of β-RA/mg of protein
